Experimental data reported in US10905691B2, “Use of triazolo(4,5-d)pyrimidine derivatives for prevention and treatment of bacterial infection” (Universite de Liege, priority 2016, dated 2021).
In brackets after ≈: the same amount, converted by molar mass.

Legend:
[1] = system: Staphyloccocus epidermidis (ATCC 35984) biofilm; test: Biofilm formation (crystal violet, 24-well plate); type: cell-based, Staphylococcus epidermidis; details: 38 μM; 20 hours; FIG. 10B
Description: Staphyloccocus aureus (ATCC 25904) or Staphyloccocus epidermidis (ATCC 35984) were grown overnight in TSB medium, before being diluted 100 fold in fresh TSB, and incubated aerobically at 37° C. until bacteria culture reached an OD600 of 0.6 (corresponding to approximately 1-3×10^8 CFU/ml). Bacteria cultures were then diluted to 1×10^4 CFU/ml in fresh TSB. Aliquots of 800 μl diluted bacteria suspensions were distributed in each well of a 24-well plate. Bacteria were allowed to adhere for 4 hours under static conditions at 37° C. After removing the media, wells were rinsed 2 times with PBS to eliminate planktonic bacteria and re-filled with TSB supplemented with 0.5% glucose containing Fluometacyl at desired concentration or DMSO alone (Ctrl). The 24-well plates were incubated at 37° C. for 20 hours. Wells were then washed and stained with 0.5% (w/v) crystal violet for 30 minutes and rinsed with PBS 4 times. The dye was solubilized by adding 20% acetic acid (v/v in water) before reading absorbance at 595 nm. FIG. 10A and FIG. 10B show Fluometacyl effect on S. aureus and S. epidermidis biofilm formation respectively at all concentrations tested.

[2] = system: S. agalactiae (ATCC 12386); test: MBC and MDK99.9 determination (CFU counting); type: cell-based, Streptococcus agalactiae
Description: Further experiments were conducted using S. agalactiae (ATCC 12386), as clinically relevant Gram-positive bacterial strains in order to determine the Minimal Inhibitory Concentration (MIC) which is the minimal concentration required to prevent bacterial growth; the Minimal Bactericidal Concentration (MBC) which determines the lowest concentration at which an antimicrobial agent kill a particular microorganism and a Minimum Duration for killing 99.9% bacteria (MDK99.9) which is a tolerance metric according to the EUCAST.
MBC and MDK99.9 determination: A single colony selected from S. agalactiae (ATCC 12386) is resuspended and cultured in the appropriate medium (TSB, or BHI) overnight (O/N) in aerobic conditions (37° C. with 220 rpm shaking), next day a 1:100 inoculum in the appropriate medium was incubated in aerobic conditions for 2 h. The culture is then challenged with triafluocyl at MIC concentration or higher concentrations. Bacterial growth was measured after different time intervals by counting the colony-forming units after plating appropriate culture dilutions on BHI agar plates. […] And the real time needed is defined as the MDK99.9. MBC for Triafluocyl against S. agalactiae (ATCC 12386) was 40 μg/ml. MDK99.9 for Triafluocyl against S. agalactiae (ATCC 12386) was 1 hour.

S. epidermidis biofilm = test: Biofilm formation (crystal violet, 24-well plate); type: cell-based, Staphylococcus epidermidis
Description: To study the effect of Triafluocyl on biofilm formation, S. epidermidis in early logarithmic phase (5×10^8 CFU/ml) was plated in a 24-well plate and let to adhere at the bottom of the well for 4 hr at 37° C. in static conditions. After 4 hr incubation, planktonic bacteria were removed and adherent bacteria were washed twice in TSB. Fresh TSB medium supplemented or not with 0.25% glucose was added to the well with 5 different concentrations of Triafluocyl and incubated for 24 hours. Wells were washed 3 times with NaCl 0.9% and incubated for 1 hr at RT with Crystal Violet 1% solution in dH2O to stain the biofilm. Wells were washed 3 times with dH2O to eliminate unbound crystal violet, then 400 μl Acetic Acid 10% was added and incubated at RT for 10 min. Absorbance was measured in triplicate at 570 nm, reflecting total biomass of the biofilm (live and dead bacteria). The concentration of Triafluocyl that inhibits at least 90% biofilm formation is called minimum biofilm inhibitory concentration (MBIC). Triafluocyl MBIC for S. epidermidis is 50 μg/ml both in the presence and in the absence of glucose.

[3] = system: S. epidermidis mature biofilm; test: Mature biofilm (24-hour) treatment, LIVE/DEAD BacLight staining; type: cell-based, Staphylococcus epidermidis; details: 24 hr treatment of 24-hour biofilm
From the text: In another experiment we let adhere 0.5×10^8 CFU/ml S. epidermidis cells for 4 hr and let the biofilm form for additional 24 hr in presence of 0.25% glucose, at this point we treated the biofilm with several concentrations of Triafluocyl for 24 hr in TSB with 0.25% glucose and determined the viable count (FIG. 7) as well as the percentage of live cells using the BacLight bacterial viability kit (Molecular Probes).
In the same experiment we also determined the percentage of live and dead bacteria. To do so we followed the procedure of the kit LIVE/DEAD from Molecular Probes. Briefly, the biofilm was resuspended in a solution of 0.9% NaCl and cells were stained with a mixture of SYTO9 (green fluorescence) and propidium iodide (PI) (red fluorescence) for 15 min in the dark. Stained cells were transferred in a 96-well plate and fluorescence was measured using the Enspire Spectrophotometer with excitation wavelength of 470 nm and emission spectra in the range of 490-700 nm. SYTO9 dye (green fluorescence 500-520 nm) penetrates all the cells (dead and live) and binds to DNA, while PI (red fluorescence in the range 610-630 nm) enters only in dead cells with a damaged cell membrane. When PI and SYTO9 are in the same cell the green fluorescence intensity decreases. […]

SMILES | S. epidermidis biofilm formation [1] | MDK 99.9 Time (h) needed to kill 99.9% of the started inoculum [2] [h] | MBC ([2]; Streptococcus agalactiae, ATCC12386, cut-off 99.9% reduction in CFU) [µg/mL] | biofilm reduction (S. epidermidis biofilm; 20 μg/ml, presence of glucose (0.25%), 24 hours) [%] | inhibition at 5 µg/mL (S. epidermidis biofilm; Staphylococcus epidermidis, 5 μg/ml, absence of glucose, 24 hours) [%] | minimum biofilm inhibitory concentration (MBIC), at least 90% inhibition of biofilm formation (S. epidermidis biofilm; absence of glucose) [µg/mL] | minimum biofilm inhibitory concentration (MBIC), at least 90% inhibition of biofilm formation (S. epidermidis biofilm; presence of glucose) [µg/mL] | percentage of live bacteria in the biofilm ([3]; 20 μg/ml) [%] | percentage of live bacteria in the biofilm ([3]; 50 μg/ml) [%]
CCCSc1nc(N[C@@H]2C[C@H]2c2ccc(F)c(F)c2)c2nnn([C@@H]3C[C@H](O)[C@@H](O)[C@H]3O)c2n1 [Fluometacyl, (1S,2R,3S,4R)-4-[7-[[(1R,2S)-2-(3,4-Difluorophenyl)cyclopropyl]amino]-5-(propylthio)-3H-1,2,3-triazolo[4,5-d]pyrimidin-3-yl]-1,2,3-cyclopentanetriol] | could not form any biofilm | – | – | – | – | – | – | – | –
CCCSc1nc(N[C@@H]2C[C@H]2c2ccc(F)c(F)c2)c2nnn([C@@H]3C[C@H](OCCO)[C@@H](O)[C@H]3O)c2n1 [Triafluocyl, (1S,2S,3R,5S)-3-[7-[(1R,2S)-2-(3,4-difluorophenyl)cyclopropylamino]-5-(propylthio)-3H-[1,2,3]-triazolo[4,5-d]pyrimidin-3-yl]-5-(2-hydroxyethoxy)-1,2-cyclopentanediol] | – | 1 | 40 (≈ 76.5 µM) | 50 | 50 | 50 | 50 | 80 | 30
